Earlier results, collected in article PMC10784415 (Developmental dynamics : an official publication of the …, 2023).

System: tooth buds
Settings: animal studies; cited from earlier work

SMILES: COc1cc2nccc(Oc3ccc(NC(=O)Nc4cc(C)on4)c(Cl)c3)c2cc1OC [tivozanib]
- Effect on tooth buds: shallower or narrower tooth buds
